Measured values published in US20140303164A1, “THERAPEUTIC COMPOUNDS” (Gilead Sciences, Inc., priority 2013, published 2014).

How the values were obtained:
HIV-IIIb = test: Test A: Antiviral Assay in MT4 Cells; type: cell-based, HIV-1; details: Human immunodeficiency virus 1, IIIB, MT4, 120 h; for inhibition at 0.2 µM: read-out: % inhibition at 0.2 μM; for inhibition at 2 µM: read-out: % inhibition at 2 μM
Description: Test A: Antiviral Assay in MT4 Cells
MT-4 cells were next mixed with HIV-IIIb at an m.o.i of 0.003 for 1 hour, after which time 35 μL of virus/cell mixture (2000 cells) was immediately added to each well containing 40 μL of diluted compound. The plates were then incubated at 37° C. for 5 days. […] Cell lysis was carried out by incubating at room temperature for 10 min and then chemiluminescence was read.

[1] = Test B: Cytotoxicity Assay; type: cell-based; details: human, uninfected MT-4 cells, same protocol as Test A
How it was run: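 Uninfected MT-4 cells (2000 per well) incubated with diluted compound at 37° C. for 5 days, following the antiviral protocol without HIV-IIIb.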

| SMILES | inhibition at 0.2 µM (HIV-IIIb) | inhibition at 2 µM (HIV-IIIb) | CC50 at 5 days [1] |
| --- | --- | --- | --- |
| Cn1nc(NS(C)(=O)=O)c2c(F)ccc(-c3ccc(C#CC(C)(C)O)nc3[C@H](Cc3cc(F)cc(F)c3)NC(=O)Cn3nc(C(F)(F)F)c4c3C(F)(F)[C@@H]3C[C@H]43)c21 [Compound 132C, 2-((3bS,4aR)-5,5-difluoro-3-(trifluoromethyl)-3b,4,4a,5-tetrahydro-1H-cyclopropa[3,4]cyclopenta[1,2-c]pyrazol-1-yl)-N—((S)-2-(3,5-difluorophenyl)-1-(3-(4-fluoro-1-methyl-3-(methylsulfonamido)-1H-indazol-7-yl)-6-(3-hydroxy-3-methylbut-1-yn-1-yl)pyridin-2-yl)ethyl)acetamide] | 92% | 92% | 24.2 µM |
| Cn1nc(NS(C)(=O)=O)c2c(Cl)ccc(-c3ccc(C#CC(C)(C)O)nc3[C@H](Cc3cc(F)cc(F)c3)NC(=O)Cn3nc(C(F)(F)F)cc3C3CC3)c21 [Compound 191, (S)—N-(1-(3-(4 chloro-1-methyl-3-(methylsulfonamido)-1H-indazol-7-yl)-6-(3-hydroxy-3-methylbut-1-yn-1-yl)pyridin-2-yl)-2-(3,5-difluorophenyl)ethyl)-2-(5-cyclopropyl-3-(trifluoromethyl)-1H-pyrazol-1-yl)acetamide] | 91% | 91% | 10.1 µM |
| Cn1nc(NS(C)(=O)=O)c2c(Cl)ccc(-c3ccc(C#CC(C)(C)O)nc3[C@H](Cc3cccc(F)c3)NC(=O)Cn3nc(C(F)(F)F)c4c3C(F)(F)[C@@H]3C[C@H]43)c21 [Compound 187G, N—((S)-1-(3-(4-chloro-1-methyl-3-(methylsulfonamido)-1H-indazol-7-yl)-6-(3-hydroxy-3-methylbut-1-yn-1-yl)pyridin-2-yl)-2-(3-fluorophenyl)ethyl)-2-((3b-S,4aR)-5,5-difluoro-3-(trifluoromethyl)-3b,4,4a,5-tetrahydro-1H-cyclopropa[3,4]cyclopenta[1,2-c]pyrazol-1-yl)acetamide] | 84% | 84% | 19.8 µM |
| Cn1nc(NS(C)(=O)=O)c2c(Cl)ccc(-c3ccc(-c4ncccn4)nc3[C@H](Cc3cc(F)cc(F)c3)NC(=O)Cn3nc(C(F)(F)F)c4c3C(F)(F)[C@@H]3C[C@H]43)c21 [Compound 176, N—((S)-1-(3-(4-chloro-1-methyl-3-(methylsulfonamido)-1H-indazol-7-yl)-6-(pyrimidin-2-yl)pyridin-2-yl)-2-(3,5-difluorophenyl)ethyl)-2-((3b-S,4aR)-5,5-difluoro-3-(trifluoromethyl)-3b,4,4a,5-tetrahydro-1H-cyclopropa[3,4]cyclopenta[1,2-c]pyrazol-1-yl)acetamide] | 100% | 100% | 17.4 µM |
| CC(=O)Nc1nn(C)c2c(-c3ccc(C#CC(C)(C)O)nc3[C@H](Cc3cc(F)cc(F)c3)NC(=O)Cn3nc(C(F)F)c4c3C(F)(F)[C@@H]3C[C@H]43)ccc(Cl)c12 [Compound 94, N—((S)-1-(3-(3-acetamido-4-chloro-1-methyl-1H-indazol-7-yl)-6-(3-hydroxy-3-methylbut-1-yn-1-yl)pyridin-2-yl)-2-(3,5-difluorophenyl)ethyl)-2-((3b-S,4aR)-3-(difluoromethyl)-5,5-difluoro-3b,4,4a,5-tetrahydro-1H-cyclopropa[3,4]cyclopenta[1,2-c]pyrazol-1-yl)acetamide] | 100% | 100% | 7.58 µM |
| CN(C)c1nn(CC(=O)N[C@@H](Cc2cc(F)cc(F)c2)c2nc(C#CC(C)(C)O)ccc2-c2ccc(Cl)c3c(NS(C)(=O)=O)nn(C)c23)c2c1[C@H]1C[C@H]1C2(F)F [Compound 161, N—((S)-1-(3-(4-chloro-1-methyl-3-(methylsulfonamido)-1H-indazol-7-yl)-6-(3-hydroxy-3-methylbut-1-yn-1-yl)pyridin-2-yl)-2-(3,5-difluorophenyl)ethyl)-2-((3b-S,4aR)-3-(dimethylamino)-5,5-difluoro-3b,4,4a,5-tetrahydro-1H-cyclopropa[3,4]cyclopenta[1,2-c]pyrazol-1-yl)acetamide] | 84% | 84% | 21.8 µM |
| Cn1nc(NS(C)(=O)=O)c2c(Cl)ccc(-c3ccc(C#CC(C)(C)O)nc3[C@H](Cc3cc(F)cc(F)c3)NC(=O)Cc3cccc(Cl)c3Cl)c21 [Compound 129, (S)—N-(1-(3-(4 chloro-1-methyl-3-(methylsulfonamido)-1H-indazol-7-yl)-6-(3-hydroxy-3-methylbut-1-yn-1-yl)pyridin-2-yl)-2-(3,5-difluorophenyl)ethyl)-2-(2,3-dichlorophenyl)acetamide] | 54% | 82% | 12.1 µM |
| COc1ccc(-c2ccc(C#CC(C)(C)O)nc2[C@H](Cc2cc(F)cc(F)c2)NC(=O)Cn2nc(C(F)F)c3c2C(F)(F)[C@@H]2C[C@H]32)c2c1c(N)nn2C [Compound 114G, N—((S)-1-(3-(3-amino-4-methoxy-1-methyl-1H-indazol-7-yl)-6-(3-hydroxy-3-methylbut-1-yn-1-yl)pyridin-2-yl)-2-(3,5-difluorophenyl)ethyl)-2-((3b-S,4aR)-3-(difluoromethyl)-5,5-difluoro-3b,4,4a,5-tetrahydro-1H-cyclopropa[3,4]cyclopenta[1,2-c]pyrazol-1-yl)acetamide] | 100% | 100% | 14.8 µM |
| Cn1nc(N)c2cccc(-c3ccc(C#CC(C)(C)O)nc3[C@H](Cc3cc(F)cc(F)c3)NC(=O)Cn3nc(C(F)F)c4c3C3CC3CC4)c21 (stereo partly drawn) [Compound 34, N—((S)-1-(3-(3-amino-1-methyl-1H-indazol-7-yl)-6-(3-hydroxy-3-methylbut-1-yn-1-yl)pyridin-2-yl)-2-(3,5-difluorophenyl)ethyl)-2-(3-(difluoromethyl)-5,5a,6,6a-tetrahydrocyclopropa[g]indazol-1(4H)-yl)acetamide] | 78% | 78% | 8.76 µM |
| Cn1nc(NS(C)(=O)=O)c2c(Cl)ccc(-c3ccc(C#CC(C)(C)O)nc3[C@H](Cc3cc(F)cc(F)c3)NC(=O)Cn3nc(C(F)F)c4c3C3CC3CC4)c21 (stereo partly drawn) [Compound 83, N—((S)-1-(3-(4-chloro-1-methyl-3-(methylsulfonamido)-1H-indazol-7-yl)-6-(3-hydroxy-3-methylbut-1-yn-1-yl)pyridin-2-yl)-2-(3,5-difluorophenyl)ethyl)-2-(3-(difluoromethyl)-5,5a,6,6a-tetrahydrocyclopropa[g]indazol-1(4H)-yl)acetamide] | 94% | 94% | 9.94 µM |
| CC(C)(O)C#Cc1ccc(-c2ccc(Cl)n3c(N)nnc23)c([C@H](Cc2cc(F)cc(F)c2)NC(=O)Cn2nc(C(F)F)c3c2C(F)(F)[C@@H]2C[C@H]32)n1 [Compound 106E, N—((S)-1-(3-(3-amino-5-chloro-[1,2,4]triazolo[4,3-a]pyridin-8-yl)-6-(3-hydroxy-3-methylbut-1-yn-1-yl)pyridin-2-yl)-2-(3,5-difluorophenyl)ethyl)-2-((3b-S,4aR)-3-(difluoromethyl)-5,5-difluoro-3b,4,4a,5-tetrahydro-1H-cyclopropa[3,4]cyclopenta[1,2-c]pyrazol-1-yl)acetamide] | 95% | 96% | 12.4 µM |
| CC(C)(O)C#Cc1ncc(-c2ccc3c(c2)C(=O)NC3)c([C@H](Cc2cc(F)cc(F)c2)NC(=O)Cn2nc(C(F)(F)F)c3c2C(F)(F)[C@@H]2C[C@H]32)n1 [Compound 22C, 2-((3bS,4aR)-5,5-difluoro-3-(trifluoromethyl)-3b,4,4a,5-tetrahydro-1H-cyclopropa[3,4]cyclopenta[1,2-c]pyrazol-1-yl)-N—((S)-2-(3,5-difluorophenyl)-1-(2-(3-hydroxy-3-methylbut-1-yn-1-yl)-5-(3-oxoisoindolin-5-yl)pyrimidin-4-yl)ethyl)acetamide] | 92% | 92% | 4.95 µM |
| CC(C)C(O)C#Cc1ccc(-c2cccc3c(NS(C)(=O)=O)nn(C)c23)c([C@H](Cc2cc(F)cc(F)c2)NC(=O)Cn2nc(C(F)(F)F)c3c2C(F)(F)[C@@H]2C[C@H]32)n1 (stereo partly drawn) [Compound 64, 2-((3bS,4aR)-5,5-difluoro-3-(trifluoromethyl)-3b,4,4a,5-tetrahydro-1H-cyclopropa[3,4]cyclopenta[1,2-c]pyrazol-1-yl)-N-((1S)-2-(3,5-difluorophenyl)-1-(6-(3-hydroxy-4-methylpent-1-yn-1-yl)-3-(1-methyl-3-(methylsulfonamido)-1H-indazol-7-yl)pyridin-2-yl)ethyl)acetamide] | 98% | 98% | 7.7 µM |
| CC(C)(O)C#Cc1ccc(-c2cccc3[nH]ncc23)c([C@H](Cc2cc(F)cc(F)c2)NC(=O)Cn2nc(C(F)(F)F)c3c2C(F)(F)[C@@H]2C[C@H]32)n1 [Compound 72, 2-((3bS,4aR)-5,5-difluoro-3-(trifluoromethyl)-3b,4,4a,5-tetrahydro-1H-cyclopropa[3,4]cyclopenta[1,2-c]pyrazol-1-yl)-N—((S)-2-(3,5-difluorophenyl)-1-(6-(3-hydroxy-3-methylbut-1-yn-1-yl)-3-(1H-indazol-4-yl)pyridin-2-yl)ethyl)acetamide] | 85% | 87% | 5.87 µM |
